The values below come from patent US20100137421A1, “SMALL MOLECULE THERAPEUTICS, SYNTHESIS OF ANALOGUES AND DERIVATIVES AND METHODS OF USE” (priority 2006, published 2010).

Data set [1] can be described thus: Animal study, body weight/toxicity in SCID mice injected with primary human leukemia cells. The data set is classed as in vivo. Particulars: IV injections. How it is done: SCID mice were injected with primary human leukemia cells. Seven days following injection of leukemia cells, mice were given IV injections of gambogic acid, gambogic acid analog (17), or PBS (control). Each treatment group contained 3 mice which were monitored for body weight upon each injection.

Data set [2] concerns M21 (melanoma). As to the kind of experiment: Trypan-blue exclusion assay, M21. The data set is classed as cell-based. How it is done: (§1) Compounds such as desoxymorellin, gambogic acid, gambogin and 17 were further evaluated in a panel of solid and non-solid tumor cell lines. CEM cells were plated in a 24-well plate in complete media at 50×10^3 cells/well. Cells were treated with gambogin at concentrations of 0.25, 0.5, 1.0 μM or with 0.1% DMSO (control cells). Cells were incubated for 4 days and then the number of viable cells was determined after the addition of trypan-blue dye by counting the cells which exclude trypan-blue in a hemocytometer. Data for inhibition of cell proliferation is provided in.

For data set [3], the system named is CEM T-cell acute lymphoblastic leukemia cell line. As to the kind of experiment: Trypan-blue exclusion assay, CEM. The data set is classed as cell-based. The following applies: Homo sapiens, read-out: IC50 (μM), CEM leukemia. How it is done:
as §1

For data set [4], the system named is HUVE cells. As to the kind of experiment: Apoptosis assay (Cell Death Detection ELISA PLUS). It counts as cell-based, human. The method, then: The compounds were dissolved in DMSO and further diluted with Endothelial Cell Growth Medium (PromoCell, Heidelberg, Germany) to obtain final concentrations as indicated. HUVE cells were seeded into each well of a 96-well cell culture plate at 10000 cells per well and incubated at 37° C. for 10 h with the indicated concentrations of each compound. The final volume was 100 μL per well. Control samples were incubated with the solvent alone. Each sample was repeated three times. The proapoptotic effect was detected by using the Cell Death Detection ELISA^PLUS kit (Roche Diagnostics GmbH, Mannheim, Germany) according to the manufactor's instructions. The kit constitutes a photometric enzyme-immunoassay for the qualitative and quantitative in vitro determination of cytoplasmic histone-associated-DNA-fragments (mono- and oligo-nucleosomes) after induced cell death. Due to the working procedure the kind of cell death (apoptosis or necrosis) […]. The absorption values A (A405nm-A490nm) measured give a quantitative indication of the induced amount of apoptosis/necrosis. The higher the absorption A, the higher the induction of apoptosis/necrosis at the corresponding concentrations of the compounds.
On the technique in general: An ELISA detects its analyte on a solid surface through an enzyme-linked reagent.

The test system of data set [5] is A549 (lung). As to the kind of experiment: Trypan-blue exclusion assay, A549. The data set is classed as cell-based.
Data set [6] relates to HL-60 promyelocytic leukemia cell line. As to the kind of experiment: 3H-thymidine incorporation assay, HL-60. It counts as cell-based. Particulars: HL-60, 48 h incubation, 3H-thymidine pulse 6 h, read-out: IC50, inhibition of cell proliferation, HL-60. How it is done: (§2) The ability of the compounds to inhibit cancer cell growth was evaluated in promyelocytic leukemia cell line, HL-60, using a ^3H-thymidine incorporation assay. Cells were plated in a 96-well plate at 10-20×10^3 cells/well in RPMI supplemented with 10% fetal bovine serum, 2 mM glutamine, 1% penicillin/streptomycin (complete medium). The caged Garcinia xanthones were added to the cells at increasing concentrations and 0.1% DMSO was added to control cells. Cells were incubated for 48 h and then pulsed with ^3H-thymidine for 6 h. Incorporation of ^3H-thymidine was determined in a scintillation counter (Beckman Coulter Inc., Fullerton, Calif.) after cells were washed and deposited onto glass microfiber filters using a cell harvester M-24 (Brandel, Gaithersburg, Md.). Table 1 provides IC50 values for the natural products gambogic acid and gambogin, forbesione and deoxymorellin.
In general terms: Dividing cells build labelled thymidine or BrdU into new DNA.

For data set [7], the system named is HL-60/ADR cells (multidrug resistant clone, mdr-1 transfected). As to the kind of experiment: 3H-thymidine incorporation assay, HL-60/ADR. The data set is classed as cell-based. The following applies: 48 h incubation, 3H-thymidine pulse 6 h, read-out: IC50, inhibition of cell proliferation, HL-60/ADR. How it is done: as §2
The compounds were also evaluated in HL-60/ADR cells, a multidrug resistant clone obtained by transfection of HL-60 cells with mdr-1. (See, A. Batova, L. E. Shao, M. B. Diccianni, A. L. Yu, T. Tanaka, A. Rephaeli, A. Nudelman and J. Yu, Blood, 2002, 100, 3319-24). […] Without being bound to any particular theory, it is believed that the caged Garcinia xanthones are not subject to the mechanism of chemo-resistance resulting from the expression of mdr, characteristic of many relapsed cancers. (See, M. M. Gottesman and I. Pastan, Annu. Rev. Biochem., 1993, 62, 385-427; S. Simon, D. Roy and M. Schindler, PNAS, 1994, 91, 1128-1132 and A. K. Larsen, A. E. Escargeuil and A. Skladanowski, Pharmacol. Ther., 2000, 85, 217-229).

A short description of data set [8]: WST assay, cell viability. It counts as cell-based. Particulars: human, HUVE (human umbilical vein endothelial) cells, 24 h incubation, read-out: IC50, cytotoxicity (WST assay). How it is done:
Cell viability was determined using the WST assay in HUVE (human umbilical vein endothelial) cells that measures metabolic activity of cells alive. Compound 17 was dissolved in DMSO and further diluted with Endothelial Cell Growth Medium (PromoCell, Heidelberg, Germany) to obtain a final concentration as indicated. HUVE cells (PromoCell, Heidelberg, Germany) were seeded into each well of a 96-well cell culture plate at 7000 cells per well and incubated at 37° C. for 24 h with the indicated concentrations of each compound. The final volume was 100 μL per well. Control samples were incubated with the solvent alone. Each experiment was repeated in triplicate. Afterwards the WST-1 reagent was added to the cells at 10 μL per well and the cells further incubated at 37° C. for additional 3 h. Then the cell culture plate was agitated thoroughly for 1 minute on a shaker at 200 U/min. The absorbance of each sample was measured using a microplate reader at 440 nm. The reference wavelength was 690 nm.

Data set [9] deals with HT29 (colon). As to the kind of experiment: Trypan-blue exclusion assay, HT29. The data set is classed as cell-based.
The test system of data set [10] is PC3 (prostate). As to the kind of experiment: Trypan-blue exclusion assay, PC3. It counts as cell-based.
Data set [11] deals with MCF-7 (breast). As to the kind of experiment: Trypan-blue exclusion assay, MCF-7. It counts as cell-based.
The subject of data set [12] is (HeLa) Henrietta Lacks cervical cancer cells. Particulars: cited from earlier work.
Data set [13] has as its system HEL (Human Embryonic Lung fibroplasts). Particulars: cited from earlier work.

SMILES strings stand for the structures. Read-outs that look alike come from different tables or passages of the source.

For `CC(C)=CCC12OC(C)(C)C3CC(C=C4C(=O)c5ccccc5OC431)C2=O` (stereo not drawn) [Compound 17], the “toxicity (body weight) compared to PBS control” value in data set [1] is recorded as “no significant toxicity”. Moreover, the IC50 in data set [2] (Homo sapiens) was 2.2 µM; in data set [3] (96 h, CEM, 4 days incubation), 0.3 µM; in data set [5] (Homo sapiens) it was above 4 µM; in [6] (Homo sapiens), 1.5 µM; in [7] (Homo sapiens, HL60/ADR), 1.4 µM; in data set [9] (Homo sapiens, HT-29), 3.1 µM. For the same compound, the “subset of cells with necrosis” value in data set [4] (HUVE cells, concentrations >3 μM, 10 h) was around 10%. For the same compound, the cell necrosis result in data set [4] (HUVE cells, concentrations lower than 1.5 μM, 10 h) is reported as “not detected”. In data set [4] (after 10 h, dose-dependent), the “HUVE cells undergoing apoptosis” value is recorded as above 90%. Also, in data set [8], the IC50 at 24 h worked out at 1.38 µM.
Consider `CC(C)=CCc1c(O)cc(O)c2c1O[C@]13C(=C[C@@H]4C[C@H]1C(C)(C)O[C@@]3(CC=C(C)C)C4=O)C2=O` [Forbesione], for which the IC50 in data set [6] was 2.2 µM; in [7], 2 µM.
Consider `CC(C)=CCc1c2c(c(O)c3c1O[C@@]14C(=C[C@H]5CC1C(C)(C)O[C@]4(CC=C(C)C)C5=O)C3=O)C=CC(C)(C)O2` [desoxymorellin], for which the IC50 turned out to be 1.2 µM in data set [10] (PC3); 1.6 µM in data set [2]; 2.1 µM in data set [5]; 1 µM in data set [6]; 1.1 µM in [7]; 0.9 µM in data set [11] (MCF-7). The compound also gave an IC50 in data set [9] (HT29) of 1.2 µM.
In the case of `CC(C)=CCC[C@]1(C)C=Cc2c(O)c3c(c(CC=C(C)C)c2O1)O[C@]12C(=C[C@@H]4C[C@H]1C(C)(C)O[C@@]2(C/C=C(/C)C(=O)O)C4=O)C3=O` [gambogic acid], the “toxicity (body weight) compared to PBS control” value in data set [1] is “some toxicity”. The IC50 is 0.4 µM in data set [10] (Homo sapiens, PC-3); 1.2 µM in data set [2] (Homo sapiens); 0.15 µM in data set [3] (96 h, CEM, 4 days incubation); 1.8 µM in data set [5] (Homo sapiens); 0.3 µM in [6] (Homo sapiens); 0.5 µM in data set [7] (Homo sapiens, HL60/ADR). The IC50 is 0.4 µM in [11] (Homo sapiens, MCF7) and 0.7 µM in [9] (Homo sapiens, HT-29).
On to `CC(C)=CCCC1(C)C=Cc2c(O)c3c(c(CC=C(C)C)c2O1)O[C@]12C(=CC4C[C@H]1C(C)(C)OC2(CC=C(C)C)C4=O)C3=O` (stereo partly drawn) [gambogin], for which the IC50 in data set [10] (Homo sapiens, PC-3) was determined as 1.1 µM; in data set [2] (Homo sapiens), 1 µM; in data set [3] (CEM-4, 96 h), 0.35 µM; in [5] (Homo sapiens), 1.8 µM; in data set [6] (Homo sapiens), 0.8 µM; in [7] (Homo sapiens, HL60/ADR) it was 1.1 µM. Also, the IC50 in data set [11] (Homo sapiens, MCF7) came out at 1.1 µM; in data set [9] (Homo sapiens, HT-29), 1 µM.
Take `CC(C)=CCc1c2c(c(O)c3c1O[C@]14C(=C[C@@H]5C[C@H]1C(C)(C)O[C@@]4(C/C=C(/C)C=O)C5=O)C3=O)C=CC(C)(C)O2` [morellin]: in [12], the “cytotoxicity against HeLa” value is “good cytotoxicity”. In addition, the “cytotoxicity against HEL” value in data set [13] is on record as “good cytotoxicity”.
